Data: ChEMBL document CHEMBL1144830, “Synthesis of small molecule inhibitors of the orphan nuclear receptor steroidogenic factor-1 (NR5A1) based on isoquinolinone scaffolds” (Bioorg Med Chem Lett, 2008)

Tests used:
Steroidogenic factor 1 [1] = molecular target: T1, Steroidogenic factor 1 (Homo sapiens, UniProt Q13285); assay: Inhibition of GAL4-tagged NR5A1 by luciferase assay
[2] = molecular target: T2, Nuclear receptor ROR-alpha (Homo sapiens, UniProt P35398); assay: Inhibition of GAL4-tagged RORalpha by luciferase assay
T2 sequence (P35398 whole entry): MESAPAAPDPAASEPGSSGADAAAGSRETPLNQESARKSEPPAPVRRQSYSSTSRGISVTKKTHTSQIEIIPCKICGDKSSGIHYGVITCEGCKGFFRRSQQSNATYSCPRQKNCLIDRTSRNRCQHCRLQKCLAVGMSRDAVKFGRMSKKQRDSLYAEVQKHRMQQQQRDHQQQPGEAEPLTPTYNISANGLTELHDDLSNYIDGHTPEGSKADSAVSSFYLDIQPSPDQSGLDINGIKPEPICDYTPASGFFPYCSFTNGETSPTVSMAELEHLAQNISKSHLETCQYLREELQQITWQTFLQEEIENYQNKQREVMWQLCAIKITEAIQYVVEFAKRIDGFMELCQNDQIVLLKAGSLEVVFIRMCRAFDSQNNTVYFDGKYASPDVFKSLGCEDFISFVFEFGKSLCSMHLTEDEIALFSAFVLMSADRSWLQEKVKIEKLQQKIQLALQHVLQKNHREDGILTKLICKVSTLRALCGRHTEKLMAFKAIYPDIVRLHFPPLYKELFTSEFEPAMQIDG

[3] = Inhibition of HSV1 GAL4-tagged VP16 by luciferase assay
Steroidogenic factor 1 [4] = molecular target: T1, Steroidogenic factor 1; assay: Inhibition of GAL4-tagged NR5A1 at 100 uM by luciferase assay
[5] = molecular target: T3, Nuclear receptor ROR-alpha (Homo sapiens) (UniProt P35398); assay: Inhibition of GAL4-tagged RORalpha at 100 uM by luciferase assay
T3 sequence (whole entry): T2 sequence (P35398 whole entry)

[6] = Inhibition of HSV1 GAL4-tagged VP16 at 100 uM by luciferase assay

T1 sequence (Q13285 whole entry, the tested form may be a part): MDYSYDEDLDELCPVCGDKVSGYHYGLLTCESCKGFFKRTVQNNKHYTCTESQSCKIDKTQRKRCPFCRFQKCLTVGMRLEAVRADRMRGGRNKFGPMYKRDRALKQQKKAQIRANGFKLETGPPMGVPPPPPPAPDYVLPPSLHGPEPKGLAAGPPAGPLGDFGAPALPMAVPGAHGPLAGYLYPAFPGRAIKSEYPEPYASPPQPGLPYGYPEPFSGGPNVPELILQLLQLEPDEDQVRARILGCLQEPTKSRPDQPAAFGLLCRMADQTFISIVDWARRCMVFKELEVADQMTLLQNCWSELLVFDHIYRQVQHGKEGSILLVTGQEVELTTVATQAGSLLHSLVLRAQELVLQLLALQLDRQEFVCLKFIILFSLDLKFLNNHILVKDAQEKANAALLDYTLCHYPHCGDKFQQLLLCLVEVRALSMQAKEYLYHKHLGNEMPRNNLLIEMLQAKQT

SMILES	IC50 (Steroidogenic factor 1 [1]) [µM]	IC50 [2] [µM]	IC50 [3] [µM]	inhibition (Steroidogenic factor 1 [4]) [%]	inhibition [5] [%]	inhibition [6] [%]
CCOC(=O)C(C)Oc1cccc2c(=O)n(CC(=O)NCc3ccc4c(c3)OCO4)ccc12 (stereo unspecified)	0.26	> 33	> 33	–	–	–
CCOC(=O)C(C)Oc1cccc2c(=O)n(C(C)C(=O)Nc3ccc4c(c3)OCCO4)ccc12 (stereo unspecified)	–	–	–	< 50	< 50	< 50
CCOC(=O)C(C)Oc1cccc2c(=O)n(C(Cc3ccccc3)C(=O)Nc3ccc4c(c3)OCCO4)ccc12 (stereo unspecified)	–	–	–	< 50	< 50	< 50
CCOC(=O)C(C)Oc1cccc2c(=O)n(CC(=O)Nc3ccc(OCC)cc3)ccc12 (stereo unspecified)	0.19	22.6	24.2	–	–	–
CCOC(=O)C(C)Oc1cccc2c(=O)n(CC(=O)N(C)c3ccc4c(c3)OCCO4)ccc12 (stereo unspecified)	3.57	–	–	–	< 50	< 50
CCOC(=O)C(C)Oc1cccc2c(=O)n(CC(=O)Nc3ccc4c(c3)OCCO4)ccc12 (stereo unspecified)	0.76	> 33	> 33	–	–	–
CCOC(=O)C(C)Oc1cccc2c(=O)n(CC(=O)Nc3ccc(OC)cc3)ccc12 (stereo unspecified)	0.2	–	–	–	< 50	< 50
CCCCOc1cccc2c(=O)n(CC(=O)Nc3ccc4c(c3)OCCO4)ccc12	13.7	21.5	24.1	–	–	–
CCOC(=O)C(C)Oc1cccc2c(=O)n(CC(=O)Nc3ccc(CC)cc3)ccc12 (stereo unspecified)	0.11	25	> 33	–	–	–
CCOC(=O)C(C)Oc1cccc2c(=O)n(CC(=O)Nc3ccc(C)cc3)ccc12 (stereo unspecified)	0.34	36.5	> 33	–	–	–
CCOC(=O)C(C)Oc1cccc2c(=O)n(CC(=O)NCCc3ccccc3)ccc12 (stereo unspecified)	0.36	> 33	–	–	–	< 50
CCOC(=O)C(C)Oc1cccc2c(=O)n(CCC(=O)Nc3ccc4c(c3)OCCO4)ccc12 (stereo unspecified)	8.46	–	–	–	< 50	< 50
CCOC(=O)C(C)Oc1cccc2c(=O)n(CC(=O)NCc3ccco3)ccc12 (stereo unspecified)	4.71	> 33	–	–	–	< 50
CCOC(=O)C(C)Oc1cccc2c(=O)n(CC(=O)Nc3ccc([N+](=O)[O-])cc3)ccc12 (stereo unspecified)	0.53	–	–	–	< 50	< 50

The next lines start with the values.

IC50 (Steroidogenic factor 1 [1]) [µM]	IC50 [2] [µM]	IC50 [3] [µM]	inhibition (Steroidogenic factor 1 [4]) [%]	inhibition [5] [%]	inhibition [6] [%]	SMILES
9.71	–	–	–	< 50	< 50	CCCCNC(=O)Cn1ccc2c(OC(C)C(=O)OCC)cccc2c1=O (stereo unspecified)
0.59	–	> 33	–	< 50	–	CCOC(=O)C(C)(C)Oc1cccc2c(=O)n(CC(=O)Nc3ccc4c(c3)OCCO4)ccc12
0.36	30.7	–	–	–	< 50	CCCCc1ccc(NC(=O)Cn2ccc3c(OC(C)C(=O)OCC)cccc3c2=O)cc1 (stereo unspecified)
0.68	1.68	–	–	–	< 50	CCOC(=O)C(C)Oc1cccc2c(=O)n(CC(=O)NCc3ccc(F)cc3)ccc12 (stereo unspecified)
–	–	–	< 50	< 50	< 50	CCOC(=O)C(C)Oc1ccc2c(=O)n(CC(=O)Nc3ccc4c(c3)OCCO4)ccc2c1 (stereo unspecified)
1.06	3.22	–	–	–	< 50	CCOC(=O)C(C)Oc1cccc2c(=O)n(CC(=O)NCc3ccccc3)ccc12 (stereo unspecified)
0.2	–	–	–	< 50	< 50	CCOC(=O)C(C)Oc1cccc2c(=O)n(CC(=O)Nc3ccc(OC(F)(F)F)cc3)ccc12 (stereo unspecified)
1.77	–	–	–	< 50	< 50	CCOC(=O)C(C)Oc1cccc2c(=O)n(CC(=O)NC3CCCCC3)ccc12 (stereo unspecified)
